The text below walks through data of ChEMBL document CHEMBL5042487, “Design, synthesis, and biological activity evaluation of 2-(benzo[b]thiophen-2-yl)-4-phenyl-4,5-dihydrooxazole derivatives as broad-spectrum antifungal agents” (Eur J Med Chem, 2022).

Holding throughout (assay type): functional
Experiment [1] concerns Candida albicans. As to the kind of experiment: Antifungal activity against Candida albicans SC5314 assessed as inhibition of fungal growth by NCCLS protocol based method.
The next experiment deals with Candida tropicalis. As to the kind of experiment: Antifungal activity against Candida tropicalis GIM 2.183 assessed as inhibition of fungal growth by NCCLS protocol based method.
A further experiment concerns Aspergillus fumigatus. As to the kind of experiment: Antifungal activity against Aspergillus fumigatus CGMCC 3.7795 assessed as inhibition of fungal growth by NCCLS protocol based method.
Experiment [2] deals with Candida albicans. Kind of experiment: Antifungal activity against Candida albicans GIM 2.194 assessed as inhibition of fungal growth by NCCLS protocol based method.
A further experiment concerns Cryptococcus neoformans. As to the kind of experiment: Antifungal activity against Cryptococcus neoformans GIM 2.209 assessed as inhibition of fungal growth by NCCLS protocol based method.

Values after ≈ are worked out from the molar mass of the structure shown.

As a reminder, the MIC is the lowest concentration found to suppress growth. With `Brc1ccc2sc(C3=NC(Cn4cncn4)(c4ccccc4)CO3)cc2c1` (stereo not given), the MIC in the experiment on Candida albicans [1] is more than 16 µg/mL; in the experiment with Candida tropicalis it was more than 16 µg/mL; in the experiment on Aspergillus fumigatus, more than 64 µg/mL; with Candida albicans [2], more than 16 µg/mL; with Cryptococcus neoformans it was more than 64 µg/mL.
Take `Clc1cccc(C2(Cn3cncn3)COC(c3cc4ccc(Br)cc4s3)=N2)c1` (stereo not given): the minimum inhibitory concentration (MIC) in the experiment with Candida albicans [1] was 0.06 µg/mL (≈ 0.127 µM); in the experiment on Candida tropicalis, 0.125 µg/mL (≈ 0.264 µM); in the experiment with Aspergillus fumigatus it was 16 µg/mL (≈ 33.8 µM); in the experiment with Candida albicans [2], 0.06 µg/mL (≈ 0.127 µM); in the experiment on Cryptococcus neoformans, 0.5 µg/mL (≈ 1.06 µM).
For the compound `c1ccc(-c2ccc(C3=NC(Cn4cncn4)(c4ccccc4)CO3)s2)cc1` (stereo not given), the MIC in the experiment on Candida albicans [1] is more than 16 µg/mL; with Candida tropicalis it was more than 64 µg/mL; in the experiment on Aspergillus fumigatus, 4 µg/mL (≈ 10.3 µM); in the experiment on Candida albicans [2], more than 16 µg/mL; with Cryptococcus neoformans, 0.5 µg/mL (≈ 1.29 µM).
As to `Clc1cccc(C2(Cn3cncn3)COC(c3cc4ccc(Cl)cc4s3)=N2)c1` (stereo not given), the MIC in the experiment on Candida albicans [1] worked out at 0.06 µg/mL (≈ 0.14 µM); with Candida tropicalis it was 0.125 µg/mL (≈ 0.291 µM); with Aspergillus fumigatus, 16 µg/mL (≈ 37.3 µM); with Candida albicans [2], 0.06 µg/mL (≈ 0.14 µM); with Cryptococcus neoformans, 0.5 µg/mL (≈ 1.16 µM).
For the compound `CCC(C)n1ncn(-c2ccc(N3CCN(c4ccc(OCC5COC(Cn6cncn6)(c6ccc(Cl)cc6Cl)O5)cc4)CC3)cc2)c1=O` (stereo not given) [ITRACONAZOLE], the MIC with Candida albicans [1] was less than 0.03 µg/mL; in the experiment with Candida tropicalis, less than 0.03 µg/mL; in the experiment on Aspergillus fumigatus, less than 0.125 µg/mL; with Candida albicans [2] it was less than 0.03 µg/mL; in the experiment with Cryptococcus neoformans it was less than 0.125 µg/mL.
Take `Clc1ccc2cc(C3=NC(Cn4cncn4)(c4ccccc4)CO3)sc2c1` (stereo not given): the MIC in the experiment with Candida albicans [1] was less than 0.03 µg/mL; in the experiment with Candida tropicalis it was 0.06 µg/mL (≈ 0.152 µM); with Aspergillus fumigatus, 0.5 µg/mL (≈ 1.27 µM); with Candida albicans [2], 0.06 µg/mL (≈ 0.152 µM); with Cryptococcus neoformans it was 0.25 µg/mL (≈ 0.633 µM).
As to `c1ccc(C2(Cn3cncn3)COC(c3cc4ccccc4s3)=N2)cc1` (stereo not given), the MIC with Candida albicans [1] worked out at 0.25 µg/mL (≈ 0.694 µM); with Candida tropicalis it was 2 µg/mL (≈ 5.55 µM); with Aspergillus fumigatus, 1 µg/mL (≈ 2.77 µM); in the experiment with Candida albicans [2] it was 1 µg/mL (≈ 2.77 µM); with Cryptococcus neoformans, 0.25 µg/mL (≈ 0.694 µM).
On to `c1ccc(-c2cc(C3=NC(Cn4cncn4)(c4ccccc4)CO3)no2)cc1` (stereo not given), for which the MIC in the experiment with Candida albicans [1] is more than 16 µg/mL; in the experiment on Candida tropicalis, more than 64 µg/mL; in the experiment on Aspergillus fumigatus it was 2 µg/mL (≈ 5.39 µM); in the experiment with Candida albicans [2] it was more than 16 µg/mL; in the experiment on Cryptococcus neoformans, more than 64 µg/mL.
With `Fc1ccc(C2(Cn3cncn3)COC(c3cc4ccc(Cl)cc4s3)=N2)c(F)c1` (stereo not given), the MIC with Candida albicans [1] was 0.06 µg/mL (≈ 0.139 µM); in the experiment with Candida tropicalis, 0.06 µg/mL (≈ 0.139 µM); in the experiment with Aspergillus fumigatus it was more than 64 µg/mL; with Candida albicans [2], less than 0.03 µg/mL; with Cryptococcus neoformans, 0.25 µg/mL (≈ 0.58 µM).
Take `CC(=O)N1CCN(c2ccc(C3=NC(Cn4cncn4)(c4ccccc4)CO3)cc2)CC1` (stereo not given): the MIC in the experiment on Candida albicans [1] was more than 16 µg/mL; in the experiment on Candida tropicalis, more than 64 µg/mL; with Aspergillus fumigatus it was more than 64 µg/mL; in the experiment on Candida albicans [2] it was more than 16 µg/mL; with Cryptococcus neoformans it was more than 64 µg/mL.
Regarding `Fc1ccc(C2(Cn3cncn3)COC(c3cc4ccc(Br)cc4s3)=N2)c(F)c1` (stereo not given), the MIC with Candida albicans [1] is less than 0.03 µg/mL; in the experiment with Candida tropicalis it was less than 0.03 µg/mL; in the experiment on Aspergillus fumigatus, more than 64 µg/mL; in the experiment with Candida albicans [2], less than 0.03 µg/mL; in the experiment with Cryptococcus neoformans it was 0.5 µg/mL (≈ 1.05 µM).
As to `c1ccc(C2(Cn3cncn3)COC(c3cc4ccccc4o3)=N2)cc1` (stereo not given), the minimum inhibitory concentration (MIC) in the experiment on Candida albicans [1] was more than 16 µg/mL; in the experiment with Candida tropicalis, more than 64 µg/mL; in the experiment with Aspergillus fumigatus it was 8 µg/mL (≈ 23.2 µM); in the experiment on Candida albicans [2], more than 16 µg/mL; in the experiment on Cryptococcus neoformans, 2 µg/mL (≈ 5.81 µM).
As for `N#Cc1ccc2cc(C3=NC(Cn4cncn4)(c4ccccc4)CO3)sc2c1` (stereo not given), the MIC is more than 16 µg/mL in the experiment on Candida albicans [1]; more than 16 µg/mL in the experiment on Candida tropicalis; more than 64 µg/mL with Aspergillus fumigatus; more than 16 µg/mL in the experiment on Candida albicans [2]; more than 64 µg/mL in the experiment with Cryptococcus neoformans.
For `c1ccc(C2(Cn3cncn3)COC(c3ccc(-c4ccoc4)cc3)=N2)cc1` (stereo not given), the MIC was less than 0.03 µg/mL in the experiment on Candida albicans [1]; less than 0.125 µg/mL with Candida tropicalis; 0.5 µg/mL (≈ 1.35 µM) in the experiment with Aspergillus fumigatus; 0.5 µg/mL (≈ 1.35 µM) in the experiment with Candida albicans [2]; 0.25 µg/mL (≈ 0.675 µM) in the experiment on Cryptococcus neoformans.
On to `Fc1cc(F)cc(C2(Cn3cncn3)COC(c3cc4ccc(Br)cc4s3)=N2)c1` (stereo not given), for which the MIC in the experiment with Candida albicans [1] was 0.06 µg/mL (≈ 0.126 µM); with Candida tropicalis, 0.125 µg/mL (≈ 0.263 µM); with Aspergillus fumigatus, more than 64 µg/mL; with Candida albicans [2] it was 0.06 µg/mL (≈ 0.126 µM); in the experiment on Cryptococcus neoformans, 0.25 µg/mL (≈ 0.526 µM).
Turning to `Clc1ccc2sc(C3=NC(Cn4cncn4)(c4ccccc4)CO3)cc2c1` (stereo not given), the MIC is 0.5 µg/mL (≈ 1.27 µM) in the experiment on Candida albicans [1]; more than 16 µg/mL in the experiment on Candida tropicalis; 32 µg/mL (≈ 81 µM) with Aspergillus fumigatus; more than 16 µg/mL in the experiment on Candida albicans [2]; more than 64 µg/mL in the experiment on Cryptococcus neoformans.
On to `Brc1ccc2cc(C3=NC(Cn4cncn4)(c4ccccc4)CO3)sc2c1` (stereo not given), for which the MIC in the experiment with Candida albicans [1] was less than 0.03 µg/mL; with Candida tropicalis, 0.06 µg/mL (≈ 0.137 µM); with Aspergillus fumigatus it was 0.5 µg/mL (≈ 1.14 µM); in the experiment with Candida albicans [2], 0.06 µg/mL (≈ 0.137 µM); in the experiment with Cryptococcus neoformans it was 0.25 µg/mL (≈ 0.569 µM).
For `N#Cc1ccc2sc(C3=NC(Cn4cncn4)(c4ccccc4)CO3)cc2c1` (stereo not given), the minimal inhibitory concentration (MIC) was more than 16 µg/mL with Candida albicans [1]; more than 16 µg/mL in the experiment with Candida tropicalis; more than 64 µg/mL with Aspergillus fumigatus; more than 16 µg/mL with Candida albicans [2]; more than 64 µg/mL in the experiment on Cryptococcus neoformans.
As to `FC(F)(F)c1ccc2sc(C3=NC(Cn4cncn4)(c4ccccc4)CO3)cc2c1` (stereo not given), the MIC is 0.5 µg/mL (≈ 1.17 µM) in the experiment on Candida albicans [1]; more than 16 µg/mL in the experiment on Candida tropicalis; more than 64 µg/mL in the experiment with Aspergillus fumigatus; more than 16 µg/mL with Candida albicans [2]; more than 64 µg/mL with Cryptococcus neoformans.
As to `Fc1ccc2sc(C3=NC(Cn4cncn4)(c4ccccc4)CO3)cc2c1` (stereo not given), the MIC is 1 µg/mL (≈ 2.64 µM) with Candida albicans [1]; more than 16 µg/mL in the experiment with Candida tropicalis; 1 µg/mL (≈ 2.64 µM) in the experiment with Aspergillus fumigatus; more than 16 µg/mL in the experiment with Candida albicans [2]; 16 µg/mL (≈ 42.3 µM) in the experiment with Cryptococcus neoformans.
For `Fc1cc(F)cc(C2(Cn3cncn3)COC(c3cc4ccc(Cl)cc4s3)=N2)c1` (stereo not given), the MIC is 0.06 µg/mL (≈ 0.139 µM) with Candida albicans [1]; 0.125 µg/mL (≈ 0.29 µM) with Candida tropicalis; more than 64 µg/mL in the experiment on Aspergillus fumigatus; 0.06 µg/mL (≈ 0.139 µM) in the experiment with Candida albicans [2]; 0.25 µg/mL (≈ 0.58 µM) in the experiment with Cryptococcus neoformans.
For the compound `c1ccc(-c2nnc(-c3ccc(C4=NC(Cn5cncn5)(c5ccccc5)CO4)cc3)o2)cc1` (stereo not given), the MIC was more than 16 µg/mL in the experiment with Candida albicans [1]; more than 64 µg/mL in the experiment with Candida tropicalis; more than 64 µg/mL in the experiment with Aspergillus fumigatus; more than 16 µg/mL with Candida albicans [2]; more than 64 µg/mL in the experiment on Cryptococcus neoformans.
Consider `Fc1ccc(C2(Cn3cncn3)COC(c3ccc(-c4ccccc4F)cc3)=N2)cc1` (stereo not given), for which the MIC in the experiment on Candida albicans [1] is less than 0.03 µg/mL; with Candida tropicalis, 0.06 µg/mL (≈ 0.144 µM); in the experiment with Aspergillus fumigatus, more than 64 µg/mL; in the experiment on Candida albicans [2] it was less than 0.03 µg/mL; in the experiment with Cryptococcus neoformans it was more than 64 µg/mL.
In the case of `c1ccc(C2(Cn3cncn3)COC(c3nc4ccccc4s3)=N2)cc1` (stereo not given), the minimal inhibitory concentration (MIC) was more than 16 µg/mL in the experiment with Candida albicans [1]; more than 64 µg/mL with Candida tropicalis; more than 64 µg/mL in the experiment with Aspergillus fumigatus; more than 16 µg/mL in the experiment with Candida albicans [2]; more than 64 µg/mL in the experiment on Cryptococcus neoformans.
In the case of `c1ccc(C2=NC(Cn3cncn3)(c3ccccc3)CO2)cc1` (stereo not given), the MIC was more than 16 µg/mL with Candida albicans [1]; more than 64 µg/mL in the experiment on Candida tropicalis; more than 64 µg/mL in the experiment on Aspergillus fumigatus; more than 16 µg/mL in the experiment with Candida albicans [2]; more than 64 µg/mL in the experiment on Cryptococcus neoformans.
`c1ccc(C2(Cn3cncn3)COC(c3ccc4ccccc4c3)=N2)cc1` (stereo not given): the MIC is more than 16 µg/mL in the experiment with Candida albicans [1]; more than 64 µg/mL in the experiment with Candida tropicalis; 4 µg/mL (≈ 11.3 µM) with Aspergillus fumigatus; more than 16 µg/mL in the experiment on Candida albicans [2]; 1 µg/mL (≈ 2.82 µM) in the experiment with Cryptococcus neoformans.
In the case of `Fc1ccc2cc(C3=NC(Cn4cncn4)(c4ccccc4)CO3)sc2c1` (stereo not given), the MIC came to 0.25 µg/mL (≈ 0.661 µM) in the experiment on Candida albicans [1]; 4 µg/mL (≈ 10.6 µM) in the experiment on Candida tropicalis; 2 µg/mL (≈ 5.28 µM) in the experiment with Aspergillus fumigatus; 1 µg/mL (≈ 2.64 µM) in the experiment with Candida albicans [2]; 4 µg/mL (≈ 10.6 µM) in the experiment on Cryptococcus neoformans.
In the case of `c1ccc(COc2ccc(C3=NC(Cn4cncn4)(c4ccccc4)CO3)cc2)cc1` (stereo not given), the minimum inhibitory concentration (MIC) with Candida albicans [1] is more than 16 µg/mL; with Candida tropicalis, more than 64 µg/mL; with Aspergillus fumigatus it was more than 64 µg/mL; in the experiment with Candida albicans [2], more than 16 µg/mL; in the experiment on Cryptococcus neoformans, more than 64 µg/mL.
